Data as given in patent US9439432B2, “Phenylisoxazoline-based compound having herbicidal activity and use thereof” (MOGHU RESEARCH CENTER LTD, priority 2011, dated 2016).

Legend:
Assay type in all cases: in vivo
Cotton [1] = test: Pre-emergence treatment, phytotoxicity to cotton; conditions: 500 g/ha, 4 weeks after spraying, scale 0 to 10 (0: no effects, 10: complete death)
In short: (§1)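 Crops and grass weeds were sown in 1:1 sandy loam/bed soil, irrigated, and sprayed one day later at 300 L/ha with 500, 250, 125 or 62.5 g/ha (acetone plus 0.2% tween 20). Greenhouse at 25–30° C day, 15–25° C night; scored 0–10 (10 = complete death) at four weeks.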

Rice [2] = test: Pre-emergence treatment, phytotoxicity to rice; conditions: 500 g/ha, 4 weeks after spraying, scale 0 to 10 (0: no effects, 10: complete death)
In short: as §1

Poa annua [3] = test: Post-emergence treatment, herbicidal efficacy on annual bluegrass; conditions: 4 weeks after spraying, scale 0 to 10
In short: (§2)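 Weeds and crops in 1:1 sandy loam/bed soil were sprayed at about 3-leaf stage (second week) at 1,000, 500, 250 and 125 g/ha, 300 L/ha, in acetone/0.2% Tween 20. Greenhouse 25–30° C day, 15–25° C night; efficacy and phytotoxicity scored 0–10 (10 = complete death) after four weeks.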

Echinochloa crusgalli [4] = test: Pre-emergence treatment, herbicidal efficacy on barnyardgrass; conditions: 4 weeks after spraying
In short: as §1

Alopecurus myosuroides [5] = test: Post-emergence treatment, herbicidal efficacy on blackgrass; conditions: 4 weeks after spraying, scale 0 to 10
In short: as §2

Soybean [6] = test: Post-emergence treatment, phytotoxicity to soybean; conditions: post-emergence (about 3 leaf stage), 1,000 g/ha, 4 weeks after spraying, scale 0 to 10 (0: no effects, 10: complete death)
In short: as §2

Corn [7] = test: Post-emergence treatment, phytotoxicity to corn; conditions: post-emergence (about 3 leaf stage), 1,000 g/ha, 4 weeks after spraying, scale 0 to 10 (0: no effects, 10: complete death)
In short: as §2

Digitaria sanguinalis [8] = test: Post-emergence treatment, herbicidal efficacy on large crabgrass; conditions: 4 weeks after spraying, scale 0 to 10
In short: as §2

Poa annua [9] = test: Pre-emergence treatment, herbicidal efficacy on annual bluegrass; conditions: 4 weeks after spraying, scale 0 to 10
In short: as §1

Digitaria sanguinalis [10] = test: Pre-emergence treatment, herbicidal efficacy on large crabgrass; conditions: 4 weeks after spraying, scale 0 to 10
In short: as §1

Soybean [11] = test: Pre-emergence treatment, phytotoxicity to soybean; conditions: 500 g/ha, 4 weeks after spraying, scale 0 to 10 (0: no effects, 10: complete death)
In short: as §1

Wheat [12] = test: Post-emergence treatment, phytotoxicity to wheat; conditions: post-emergence (about 3 leaf stage), 1,000 g/ha, 4 weeks after spraying, scale 0 to 10 (0: no effects, 10: complete death)
In short: as §2

Cotton [13] = test: Post-emergence treatment, phytotoxicity to cotton; conditions: post-emergence (about 3 leaf stage), 1,000 g/ha, 4 weeks after spraying, scale 0 to 10 (0: no effects, 10: complete death)
In short: as §2

Corn [14] = test: Pre-emergence treatment, phytotoxicity to corn; conditions: 500 g/ha, 4 weeks after spraying, scale 0 to 10 (0: no effects, 10: complete death)
In short: as §1

Alopecurus myosuroides [15] = test: Pre-emergence treatment, herbicidal efficacy on blackgrass; conditions: 4 weeks after spraying, scale 0 to 10
In short: as §1

Echinochloa crusgalli [16] = test: Post-emergence treatment, herbicidal efficacy on barnyardgrass; conditions: 4 weeks after spraying, scale 0 to 10
In short: as §2

[17] = system: grass weeds including barnyardrass, large crabgrass, and annual bluegrass; test: Pre-emergence treatment, grass weeds overall; conditions: relative to reference compounds
Protocol: (§3) A rectangular plastic pot having a surface area of 300 cm^2 was filled with sandy loam soil and mixed bed soil which were mixed at a ratio of 1:1, and then, barnyardrass (Echinochloa crusgalli), large crabgrass (Digitaria sanguinalis), blackgrass (Alopecurus myosuroides), and annual bluegrass (Poa annua), which are grass weeds, were seeded thereto. In a pot that was prepared as described above, seeds of corn, soybean, cotton, wheat, and rice were seeded. The pots were irrigated, and one day after, chemicals were sprayed thereto. The spraying was performed by using a track sprayer (R&D Sprayer, USA) equipped with a Teejet 8002 (Spraying Systems Co., USA) nozzle, and a spraying amount was adjusted at 300 L/ha. A spraying solution was prepared by dissolving test materials or references in acetone and adding the same amount of 0.2%(v/v) tween 20 aqueous solution thereto. Application rates were 500, 250, 125, and 62.5 g/ha. The pots were placed in a greenhouse in which during day, the temperature was maintained at a temperature of 25 to 30° C., and during night, the temperature was maintained at a temperature of 15 to 25° C., and the pots were periodically irrigated. Four weeks after the spraying the test materials or References, effects and phytotoxicity of the respective weeds and crops were evaluated in a scale of 0 to 10 (0: no effects, 10: complete death), and results thereof are shown in Table 4 below.

Wheat [18] = test: Pre-emergence treatment, phytotoxicity to wheat; conditions: 500 g/ha, 4 weeks after spraying, scale 0 to 10 (0: no effects, 10: complete death)
In short: as §1

[19] = system: barnyardgrass, large crabgrass, and annual bluegrass; test: Post-emergence treatment, grass weeds overall; conditions: 250 g/ha
Protocol: as §3
Pots containing crops and weeds were prepared in the same manner as in Example 7, and then, in the second week in which crops and weeds entered into about 3 leaf stage, the test materials and the references were sprayed thereto in the same manner as described above. The rates were 1,000, 500, 250, and 125 g/ha. Four weeks after the spraying of the test materials or the references, herbicidal efficacy and phytotoxicity to the respective weeds and crops were evaluated in a scale of 0 to 10 (0: no effects, 10: complete death).

Rice [20] = test: Post-emergence treatment, phytotoxicity to rice; conditions: post-emergence (about 3 leaf stage), 1,000 g/ha, 4 weeks after spraying, scale 0 to 10 (0: no effects, 10: complete death)
In short: as §2

[21] = 500 g/ha, scale 0 to 10 (0: no effects, 10: complete death)

CC1(COCc2c(F)cccc2F)CC(c2ccccc2C(F)(F)F)=NO1 (stereo not drawn) [Compound 5, 5-((2,6-difluorobenzyloxy)methyl)-5-methyl-3-(2-(trifluoromethyl)phenyl)-4,5-dihydroisoxazole]
Phytotoxicity, Cotton (Cotton [1]): 1
Phytotoxicity, Rice (Rice [2]): 0
Herbicidal efficacy, Poa annua (Poa annua [3]; post-emergence, 125 g/ha): 6
Herbicidal efficacy, Poa annua (Poa annua [3]; post-emergence, 250 g/ha): 7
Herbicidal efficacy, Poa annua (Poa annua [3]; post-emergence, 500 g/ha): 8
Herbicidal efficacy, Poa annua (Poa annua [3]; post-emergence, 1,000 g/ha): 10
Herbicidal efficacy, Echinochloa crusgalli (Echinochloa crusgalli [4]; 62.5 g/ha, scale 0 to 10): 10
Herbicidal efficacy, Echinochloa crusgalli (Echinochloa crusgalli [4]; 125 g/ha, scale 0 to 10): 10
Herbicidal efficacy, Echinochloa crusgalli (Echinochloa crusgalli [4]; 250 g/ha, scale 0 to 10): 10
Herbicidal efficacy, Echinochloa crusgalli (Echinochloa crusgalli [4]; [21]): 10
Herbicidal efficacy, Alopecurus myosuroides (Alopecurus myosuroides [5]; post-emergence, 125 g/ha): 1
Herbicidal efficacy, Alopecurus myosuroides (Alopecurus myosuroides [5]; post-emergence, 250 g/ha): 4
Herbicidal efficacy, Alopecurus myosuroides (Alopecurus myosuroides [5]; post-emergence, 500 g/ha): 5
Herbicidal efficacy, Alopecurus myosuroides (Alopecurus myosuroides [5]; post-emergence, 1,000 g/ha): 9
Phytotoxicity, Soybean (Soybean [6]): 2
Phytotoxicity, Corn (Corn [7]): 5
Herbicidal efficacy, Digitaria sanguinalis (Digitaria sanguinalis [8]; post-emergence, 125 g/ha): 6
Herbicidal efficacy, Digitaria sanguinalis (Digitaria sanguinalis [8]; post-emergence, 250 g/ha): 8
Herbicidal efficacy, Digitaria sanguinalis (Digitaria sanguinalis [8]; post-emergence, 500 g/ha): 10
Herbicidal efficacy, Digitaria sanguinalis (Digitaria sanguinalis [8]; post-emergence, 1,000 g/ha): 10
Herbicidal efficacy, Poa annua (Poa annua [9]; 62.5 g/ha): 9
Herbicidal efficacy, Poa annua (Poa annua [9]; 125 g/ha): 9
Herbicidal efficacy, Poa annua (Poa annua [9]; 250 g/ha): 9
Herbicidal efficacy, Poa annua (Poa annua [9]; 500 g/ha): 10
Herbicidal efficacy, Digitaria sanguinalis (Digitaria sanguinalis [10]; 62.5 g/ha): 10
Herbicidal efficacy, Digitaria sanguinalis (Digitaria sanguinalis [10]; 125 g/ha): 10
Herbicidal efficacy, Digitaria sanguinalis (Digitaria sanguinalis [10]; 250 g/ha): 10
Herbicidal efficacy, Digitaria sanguinalis (Digitaria sanguinalis [10]; 500 g/ha): 10
Phytotoxicity, Soybean (Soybean [11]): 2
Phytotoxicity, Wheat (Wheat [12]): 0
Phytotoxicity, Cotton (Cotton [13]): 0
Phytotoxicity, Corn (Corn [14]): 3
Herbicidal efficacy, Alopecurus myosuroides (Alopecurus myosuroides [15]; 62.5 g/ha): 5
Herbicidal efficacy, Alopecurus myosuroides (Alopecurus myosuroides [15]; 125 g/ha): 6
Herbicidal efficacy, Alopecurus myosuroides (Alopecurus myosuroides [15]; 250 g/ha): 7
Herbicidal efficacy, Alopecurus myosuroides (Alopecurus myosuroides [15]; 500 g/ha): 8
Herbicidal efficacy, Echinochloa crusgalli (Echinochloa crusgalli [16]; post-emergence, 125 g/ha): 6
Herbicidal efficacy, Echinochloa crusgalli (Echinochloa crusgalli [16]; post-emergence, 250 g/ha): 8
Herbicidal efficacy, Echinochloa crusgalli (Echinochloa crusgalli [16]; post-emergence, 500 g/ha): 10
Herbicidal efficacy, Echinochloa crusgalli (Echinochloa crusgalli [16]; post-emergence, 1,000 g/ha): 10
efficacy stronger than the References [17]: about 8 times
Phytotoxicity, Wheat (Wheat [18]): 0
suppression of barnyardgrass, large crabgrass, and annual bluegrass [19]: greatly suppressed
Phytotoxicity, Rice (Rice [20]): 0

CC1(COCc2c(F)cccc2F)CC(c2ccccc2Cl)=NO1 (stereo not drawn) [Compound 2, 3-(2-chlorophenyl)-5-((2,6-difluorobenzyloxy)methyl)-5-methyl-4,5-dihydroisoxazole]
Phytotoxicity, Cotton (Cotton [1]): 0
Phytotoxicity, Rice (Rice [2]): 0
Herbicidal efficacy, Poa annua (Poa annua [3]; post-emergence, 125 g/ha): 5
Herbicidal efficacy, Poa annua (Poa annua [3]; post-emergence, 250 g/ha): 8
Herbicidal efficacy, Poa annua (Poa annua [3]; post-emergence, 500 g/ha): 8
Herbicidal efficacy, Poa annua (Poa annua [3]; post-emergence, 1,000 g/ha): 10
Herbicidal efficacy, Echinochloa crusgalli (Echinochloa crusgalli [4]; 62.5 g/ha, scale 0 to 10): 9
Herbicidal efficacy, Echinochloa crusgalli (Echinochloa crusgalli [4]; 125 g/ha, scale 0 to 10): 10
Herbicidal efficacy, Echinochloa crusgalli (Echinochloa crusgalli [4]; 250 g/ha, scale 0 to 10): 10
Herbicidal efficacy, Echinochloa crusgalli (Echinochloa crusgalli [4]; [21]): 10
Herbicidal efficacy, Alopecurus myosuroides (Alopecurus myosuroides [5]; post-emergence, 125 g/ha): 1
Herbicidal efficacy, Alopecurus myosuroides (Alopecurus myosuroides [5]; post-emergence, 250 g/ha): 5
Herbicidal efficacy, Alopecurus myosuroides (Alopecurus myosuroides [5]; post-emergence, 500 g/ha): 7
Herbicidal efficacy, Alopecurus myosuroides (Alopecurus myosuroides [5]; post-emergence, 1,000 g/ha): 9
Phytotoxicity, Soybean (Soybean [6]): 1
Phytotoxicity, Corn (Corn [7]): 2
Herbicidal efficacy, Digitaria sanguinalis (Digitaria sanguinalis [8]; post-emergence, 125 g/ha): 5
Herbicidal efficacy, Digitaria sanguinalis (Digitaria sanguinalis [8]; post-emergence, 250 g/ha): 5
Herbicidal efficacy, Digitaria sanguinalis (Digitaria sanguinalis [8]; post-emergence, 500 g/ha): 6
Herbicidal efficacy, Digitaria sanguinalis (Digitaria sanguinalis [8]; post-emergence, 1,000 g/ha): 10
Herbicidal efficacy, Poa annua (Poa annua [9]; 62.5 g/ha): 8
Herbicidal efficacy, Poa annua (Poa annua [9]; 125 g/ha): 9
Herbicidal efficacy, Poa annua (Poa annua [9]; 250 g/ha): 10
Herbicidal efficacy, Poa annua (Poa annua [9]; 500 g/ha): 10
Herbicidal efficacy, Digitaria sanguinalis (Digitaria sanguinalis [10]; 62.5 g/ha): 9
Herbicidal efficacy, Digitaria sanguinalis (Digitaria sanguinalis [10]; 125 g/ha): 10
Herbicidal efficacy, Digitaria sanguinalis (Digitaria sanguinalis [10]; 250 g/ha): 10
Herbicidal efficacy, Digitaria sanguinalis (Digitaria sanguinalis [10]; 500 g/ha): 10
Phytotoxicity, Soybean (Soybean [11]): 0
Phytotoxicity, Wheat (Wheat [12]): 1
Phytotoxicity, Cotton (Cotton [13]): 1
Phytotoxicity, Corn (Corn [14]): 0
Herbicidal efficacy, Alopecurus myosuroides (Alopecurus myosuroides [15]; 62.5 g/ha): 2
Herbicidal efficacy, Alopecurus myosuroides (Alopecurus myosuroides [15]; 125 g/ha): 3
Herbicidal efficacy, Alopecurus myosuroides (Alopecurus myosuroides [15]; 250 g/ha): 6
Herbicidal efficacy, Alopecurus myosuroides (Alopecurus myosuroides [15]; 500 g/ha): 10
Herbicidal efficacy, Echinochloa crusgalli (Echinochloa crusgalli [16]; post-emergence, 125 g/ha): 0
Herbicidal efficacy, Echinochloa crusgalli (Echinochloa crusgalli [16]; post-emergence, 250 g/ha): 5
Herbicidal efficacy, Echinochloa crusgalli (Echinochloa crusgalli [16]; post-emergence, 500 g/ha): 8
Herbicidal efficacy, Echinochloa crusgalli (Echinochloa crusgalli [16]; post-emergence, 1,000 g/ha): 10
efficacy stronger than the References [17]: about 4 times
Phytotoxicity, Wheat (Wheat [18]): 0
Phytotoxicity, Rice (Rice [20]): 1
